Values of other authors as cited in patent publication US20030124640A1, “Predictive assay for the outcome of IVF” (Royal Free Hospital School of Medicine, priority 1996, published 2003).
Read-outs that look alike come from different tables or passages of the source. Blank lines part the entries; values can stand above or below the compound they belong to.

Tests used:
11β-HSD2 = molecular target: T1, 11β-HSD2 (Homo sapiens, UniProt P80365); details: renal isoform 11β-HSD2, NAD+ dependent 11β-dehydrogenase
T1 sequence (P80365 1-405): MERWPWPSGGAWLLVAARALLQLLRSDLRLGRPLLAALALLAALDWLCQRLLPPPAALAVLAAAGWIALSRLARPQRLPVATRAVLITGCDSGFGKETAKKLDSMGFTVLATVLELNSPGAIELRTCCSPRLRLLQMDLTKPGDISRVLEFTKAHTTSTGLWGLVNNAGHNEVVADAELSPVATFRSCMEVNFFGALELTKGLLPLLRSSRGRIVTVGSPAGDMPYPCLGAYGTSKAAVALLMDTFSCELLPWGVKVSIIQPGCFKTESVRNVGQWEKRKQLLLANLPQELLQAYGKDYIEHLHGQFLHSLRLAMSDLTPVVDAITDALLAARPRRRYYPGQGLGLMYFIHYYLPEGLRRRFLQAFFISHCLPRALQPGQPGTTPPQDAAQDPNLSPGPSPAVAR

ovarian 11β-HSD = details: for Inhibition of 11β-HSD activity: cultured human granulosa-lutein cells; for Acute effect on ovarian 11β-HSD activity: in vitro
renal 11β-HSD = molecular target: T2, renal 11β-HSD (Homo sapiens, UniProt P80365)
T2 sequence (P80365 1-405): T1 sequence (P80365 1-405)

[1] = hepatic isoform 11βHSD1, NADP(H) cofactor, read-out: Km for 11β-dehydrogenase activity

SMILES: C[C@]12CCC(=O)C=C1CC[C@@H]1[C@@H]2C(=O)C[C@@]2(C)[C@H]1CC[C@]2(O)C(=O)CO [cortisone]
- Km (11βHSD1; hepatic isoform 11βHSD1, cortisone to cortisol, read-out: Km for cortisone (11-ketosteroid reductase activity)): 140 to 272 nM

SMILES: C[C@]12CC[C@@H]3c4ccc(O)cc4CC[C@H]3[C@@H]1CC[C@@H]2O [oestradiol]
- Effect on hepatic 11β-HSD activity in vivo (hepatic 11β-HSD): inhibits

SMILES: CC(=O)[C@H]1CC[C@H]2[C@@H]3CC=C4C[C@@H](O)CC[C@]4(C)[C@H]3CC[C@]12C [pregnenolone]
- Inhibition of 11β-HSD activity (ovarian 11β-HSD): can inhibit
- Acute effect on ovarian 11β-HSD activity (ovarian 11β-HSD): inhibit
- Acute effect on renal 11β-HSD activity (renal 11β-HSD): inhibit

Second part, led by results:

- Km (11βHSD1; [1]): ~2000 nM
- Km (11β-HSD2): 26 nM
SMILES: C[C@]12C[C@H](O)[C@H]3[C@@H](CCC4=CC(=O)CC[C@@]43C)[C@@H]1CC[C@@H]2C(=O)CO [corticosterone]

- Km (11βHSD1; [1]): 17000 nM
- Km (11β-HSD2): 40 nM
SMILES: C[C@]12CCC(=O)C=C1CC[C@@H]1[C@@H]2[C@@H](O)C[C@@]2(C)[C@H]1CC[C@]2(O)C(=O)CO [cortisol]

- Acute effect on renal 11β-HSD activity (renal 11β-HSD): inhibit
SMILES: CC(=O)[C@H]1CC[C@H]2[C@@H]3CCC4=CC(=O)CC[C@]4(C)[C@H]3CC[C@]12C [progesterone]
- Inhibition of 11β-HSD activity (ovarian 11β-HSD): can inhibit
- Acute effect on ovarian 11β-HSD activity (ovarian 11β-HSD): inhibit
